Legend:
Format in all cases: in vivo, Amaranthus palmeri
[1] = test system: AMAPA WR-2015-008 (resistant against glyphosate and metribuzin (PSII-inhibitor), PPO-, HPPD- and ALS-inhibitor herbicides); assay: Greenhouse pre-emergence herbicidal activity, AMAPA WR-2015-008; conditions: mean of 6
Text: (§1) Test conditions in the greenhouse trial, herbicidal activity against weed plants pre-emergence.
(§2) Seeds of weed plants and crop plants are sown in 3.5 inches (8.89 cm) pots containing a 50:50 mix of Redi-earth (Sun Gro, Bellevue, Washington) and soil at 0.5 to 0.75 inches (1.27 to 1.905 cm) deep. The compounds of the disclosure, formulated in the form of wettable powders (WP) or emulsifiable concentrates (EC), are then applied to the dry soil surface, in the form of an aqueous suspension or emulsion, using a laboratory track sprayer calibrated to deliver 15 gallons per acre (140.31 L/ha). Following the treatment, the pots are placed in a greenhouse and overhead irrigated with 0.25 inches (0.635 cm) for activation and maintained under good growth conditions for the test plants. Visual scoring of the damage to the trial plants takes place after a trial time of 3 weeks in comparison to untreated controls (herbicidal activity in percent (%): 100% activity=plants have died; 0% activity=as control plants). The results are set out in the tables which follow.
AMAPA (WR-2015-008) Amaranthus palmeri (resistant against glyphosate and metribuzin (PSII-inhibitor), PPO-, HPPD- and ALS-inhibitor herbicides).
(§3) Herbicidal activity against different weeds (undesired plants) was calculated as follows: E^C=A+B−A×B/100; E^C=(A+B+C)−(A×B+A×C+B×C)/100+(A×B×C)/10000; • wherein: • A, B, C=respective value in percent of active ingredient A at a dose rate of a g/ha, ingredient B at a dose rate of b g/ha and ingredient C at a dose rate of c g/ha; • E^C=Expected value according to Colby (S. R. Colby; Weeds 15 (1967), 20-22) in % at a dose rate of a+b (+c), each in g/ha; • Δ=Difference (%) between measured value E and expected value E^C (%) (measured value minus expected value). Evaluation: • measured value E is greater than E^C: →synergism (+Δ); • measured value E is equal to E^C: →additive effect; • measured value E is smaller than E^C: →antagonism (−Δ);
(§4) All values in Tables 1 to 15 are mean values of 6 repetitions.

[2] = test system: AMAPA WR-2013-043 (resistant against HPPD-inhibitor herbicides); assay: Greenhouse pre-emergence herbicidal activity, AMAPA WR-2013-043; conditions: 3 weeks, mean of 6
Text: as §1, §2
AMAPA (WR-2013-043) Amaranthus palmeri (resistant against HPPD-inhibitor herbicides) (Kansas).
as §3, §4

[3] = test system: AMAPA WR-2015-002 (resistant against glyphosate, PPO-, HPPD- and ALS-inhibitor herbicides); assay: Greenhouse pre-emergence herbicidal activity, AMAPA WR-2015-002; conditions: 3 weeks, mean of 6
Text: as §1, §2
AMAPA (WR-2015-002) Amaranthus palmeri (resistant against glyphosate, PPO-, HPPD- and ALS-inhibitor herbicides) (Tennessee).
as §3, §4

SMILES | Activity [%] against AMAPA WR-2015-008 ([1]; rate 75 g/ha, 3 weeks) | Activity [%] against AMAPA WR-2015-008 ([1]; rate 150 g/ha, 3 weeks) | Activity [%] against AMAPA WR-2013-043 ([2]; rate 75 g/ha) | Activity [%] against AMAPA WR-2013-043 ([2]; rate 150 g/ha) | Activity [%] against AMAPA WR-2015-008 ([1]; rate 37 g/ha, visual scoring after 3 weeks) | Activity [%] against AMAPA WR-2015-002 ([3]; rate 75 g/ha) | Activity [%] against AMAPA WR-2015-002 ([3]; rate 150 g/ha) | Activity [%] against AMAPA WR-2013-043 ([2]; rate 52 g/ha) | Activity [%] against AMAPA WR-2013-043 ([2]; rate 105 g/ha) | Activity [%] against AMAPA WR-2015-008 ([1]; rate 52 g/ha, 3 weeks) | Activity [%] against AMAPA WR-2015-008 ([1]; rate 105 g/ha, 3 weeks) | Activity [%] against AMAPA WR-2015-002 ([3]; rate 105 g/ha)
CSc1nnc(C(C)(C)C)c(=O)n1N [MRB, 4-amino-6-(1,1-dimethylethyl)-3-(methylthio)-1,2,4-triazin-5(4H)-one] | 39.2% | 45% |  |  |  |  |  |  |  |  |  | 
O=C(Nc1ccc(F)cc1F)c1cccnc1Oc1cccc(C(F)(F)F)c1 [DFF, 2′,4′-difluoro-2-[3-(trifluoromethyl)phenoxy]pyridine-3-carboxanilide] | 51.7% |  | 47.5% | 63.3% | 40.8% | 45.8% | 71.7% |  |  |  |  | 
CS(=O)(=O)c1ccc(C(=O)C2C(=O)CCCC2=O)c([N+](=O)[O-])c1 [MST, 2-[4-(methylsulfonyl)-2-nitrobenzoyl]cyclohexane-1,3-dione] |  |  |  |  |  |  |  | 55.0% | 70.5% | 57.7% | 85% | 82.5%
